Source: DBAASP
Converted amounts (≈) assume the structure as drawn.

How the values were obtained:
Experiment in all cases: ≥ marks a high value that may be exact or a test limit, other limits are often not marked, values filed in µg/mL are converted to µM
Escherichia coli = test system: Escherichia coli
[1] = test system: Escherichia coli ATCC 25922
Staphylococcus aureus = test system: Staphylococcus aureus
[2] = test system: Staphylococcus aureus ATCC 25923
[3] = test system: Pseudomonas aeruginosa ATCC 27853
[4] = test system: Staphylococcus epidermidis ATCC 12228

Work on `CC[C@H](C)[C@H](NC(=O)[C@H](CCCCN)NC(=O)[C@@H]1CCCN1C(=O)[C@@H](NC(=O)[C@H](CC(C)C)NC(=O)[C@H](C)NC(=O)[C@H](Cc1ccccc1)NC(=O)[C@H](Cc1ccccc1)NC(=O)CN)[C@@H](C)CC)C(=O)N[C@H](C(=O)N[C@@H](CO)C(=O)N[C@@H](CO)C(=O)N1CCC[C@H]1C(=O)N[C@@H](CC(C)C)C(=O)N[C@@H](Cc1ccccc1)C(=O)N[C@@H](CCCCN)C(=O)N[C@H](C(=O)N[C@@H](CC(C)C)C(N)=O)[C@@H](C)O)[C@@H](C)CC` [GFFALIPKIISSPLFKTL] yielded an MIC (Escherichia coli) of 17.1 µM (≈ 34 µg/mL).
With `CC[C@H](C)[C@H](NC(=O)CN)C(=O)N[C@@H](CCCCN)C(=O)N[C@@H](CCCCN)C(=O)N[C@@H](Cc1ccccc1)C(=O)N[C@@H](CC(C)C)C(=O)N[C@@H](Cc1cnc[nH]1)C(=O)N[C@H](C(=O)N[C@H](C(=O)N[C@@H](Cc1c[nH]c2ccccc12)C(=O)N[C@@H](CCCCN)C(=O)N[C@@H](Cc1ccccc1)C(=O)N[C@H](C(=O)N[C@@H](CCCCN)C(=O)N[C@@H](C)C(=O)N[C@@H](Cc1ccccc1)C(=O)N[C@H](C(=O)NCC(=O)N[C@@H](CCC(=O)O)C(=O)N[C@H](C(=O)N[C@@H](CCSC)C(=O)N[C@@H](CC(N)=O)C(=O)N[C@@H](CO)C(=O)O)[C@@H](C)CC)C(C)C)[C@@H](C)CC)[C@@H](C)CC)[C@@H](C)CC` [GIKKFLHIIWKFIKAFVGEIMNS] the MIC [1] was 16 µM (≈ 43.5 µg/mL).
`CC[C@H](C)[C@H](NC(=O)CN)C(=O)N[C@@H](CC(C)C)C(=O)N[C@@H](CO)C(=O)N[C@@H](CO)C(=O)N[C@@H](Cc1ccccc1)C(=O)N[C@@H](CCCCN)C(=O)NCC(=O)N[C@H](C(=O)N[C@@H](C)C(=O)N[C@@H](CCCCN)C(=O)NCC(=O)N[C@H](C(=O)N[C@@H](C)C(=O)N[C@@H](CCCCN)C(=O)N[C@@H](CC(=O)O)C(=O)N[C@@H](CC(C)C)C(=O)N[C@@H](C)C(=O)NCC(=O)N[C@@H](CCCCN)C(=O)N[C@@H](CC(C)C)C(=O)N[C@@H](CC(C)C)C(=O)N[C@@H](CCC(=O)O)C(=O)N[C@H](C(=O)N[C@@H](CC(C)C)C(=O)N[C@@H](CCCCN)C(N)=O)[C@@H](C)O)C(C)C)C(C)C` [GILSSFKGVAKGVAKDLAGKLLETLK] gave an MIC [1] of 6.3 µM (≈ 16.7 µg/mL).
In the case of `CC[C@H](C)[C@H](NC(=O)[C@H](CCCCN)NC(=O)[C@H](CC(C)C)NC(=O)CNC(=O)[C@H](C)NC(=O)[C@H](CCCCN)NC(=O)[C@H](CC(C)C)NC(=O)[C@H](C)NC(=O)[C@H](CCCCN)NC(=O)CNC(=O)[C@H](CC(C)C)NC(=O)[C@H](Cc1ccccc1)NC(=O)[C@H](CO)NC(=O)[C@H](C)NC(=O)[C@H](CC(C)C)NC(=O)CN)C(=O)NCC(=O)N[C@@H](CO)C(=O)N[C@@H](Cc1cnc[nH]1)C(=O)N[C@@H](CC(C)C)C(=O)N[C@@H](CC(C)C)C(=O)NCC(=O)NCC(=O)N[C@@H](C)C(=O)N1CCC[C@H]1C(=O)N[C@@H](CCC(N)=O)C(=O)N[C@@H](CCC(N)=O)C(=O)O` [GLASFLGKALKAGLKIGSHLLGGAPQQ], the MIC (Escherichia coli) is reported as 25 µM (≈ 65.8 µg/mL) and the MIC (Staphylococcus aureus) is reported as 6 µM (≈ 15.8 µg/mL).
In the case of `CC[C@H](C)[C@H](NC(=O)[C@H](C)NC(=O)[C@H](CCCCN)NC(=O)[C@H](CC(C)C)NC(=O)[C@H](CC(C)C)NC(=O)CN)C(=O)N[C@@H](CCCCN)C(=O)N[C@H](C(=O)N[C@@H](CC(C)C)C(=O)N[C@@H](CC(C)C)C(N)=O)[C@@H](C)O` [GLLKAIKTLL], the MIC [1] is reported as 4.68 µM (≈ 5 µg/mL) and the MIC [2] is reported as 9.35 µM (≈ 9.99 µg/mL).
`CC[C@H](C)[C@H](NC(=O)[C@H](Cc1ccccc1)NC(=O)[C@H](CCCCN)NC(=O)[C@H](CC(C)C)NC(=O)[C@H](CC(C)C)NC(=O)CN)C(=O)N[C@@H](CCCCN)C(=O)N[C@H](C(=O)N[C@@H](CC(C)C)C(=O)N[C@@H](CC(C)C)C(N)=O)[C@@H](C)O` [GLLKFIKTLL] was tested, and the MIC [1] was 1.75 µM (≈ 2 µg/mL) and the MIC [2] was 1.75 µM (≈ 2 µg/mL).
Work on `CC[C@H](C)[C@H](NC(=O)[C@H](CCCN=C(N)N)NC(=O)[C@H](CCCCN)NC(=O)[C@H](CC(C)C)NC(=O)[C@H](CC(C)C)NC(=O)CN)C(=O)N[C@@H](CCCCN)C(=O)N[C@@H](Cc1ccccc1)C(=O)N[C@@H](CC(C)C)C(=O)N[C@@H](CC(C)C)C(N)=O` [GLLKRIKFLL] yielded an MIC [1] of 6.66 µM (≈ 7.99 µg/mL) and an MIC [2] of 6.66 µM (≈ 7.99 µg/mL).
In the case of `CC[C@H](C)[C@H](NC(=O)[C@H](CCCN=C(N)N)NC(=O)[C@H](CCCCN)NC(=O)[C@H](CC(C)C)NC(=O)[C@H](CC(C)C)NC(=O)CN)C(=O)N[C@@H](CCCCN)C(=O)N[C@H](C(=O)N[C@@H](C)C(=O)N[C@@H](CC(C)C)C(N)=O)[C@@H](C)O` [GLLKRIKTAL], the MIC [1] is reported as 44 µM (≈ 49 µg/mL) and the MIC [2] is reported as > 27.9 µM.
For `CC[C@H](C)[C@H](NC(=O)[C@@H](NC(=O)[C@H](Cc1ccccc1)NC(=O)[C@H](CCCCN)NC(=O)[C@H](C)NC(=O)[C@H](CC(C)C)NC(=O)[C@H](CCCCN)NC(=O)CNC(=O)[C@H](CC(C)C)NC(=O)[C@@H](NC(=O)[C@@H](NC(=O)CNC(=O)[C@H](C)NC(=O)[C@H](C)NC(=O)[C@@H](NC(=O)[C@H](C)NC(=O)[C@H](CCSC)NC(=O)CN)[C@@H](C)O)[C@@H](C)O)[C@@H](C)O)C(C)C)C(=O)NCC(=O)N[C@@H](C)C(=O)N[C@H](C(N)=O)C(C)C` [GMATAAGTTLGKLAKFVIGAV], the MIC (Escherichia coli) was > 80 µM and the MIC (Staphylococcus aureus) was > 80 µM.
For `CC[C@H](C)[C@H](NC(=O)[C@H](CC(=O)O)NC(=O)[C@@H](NC(=O)[C@@H](NC(=O)CN)C(C)C)C(C)C)C(=O)N[C@@H](CC(C)C)C(=O)N[C@@H](CCCCN)C(=O)NCC(=O)N[C@@H](C)C(=O)N[C@@H](C)C(=O)N[C@@H](CCCCN)C(=O)N[C@@H](CC(=O)O)C(=O)N[C@@H](CC(C)C)C(=O)N[C@@H](C)C(=O)NCC(=O)N[C@@H](Cc1cnc[nH]1)C(=O)N[C@@H](CC(C)C)C(=O)N[C@@H](C)C(=O)N[C@@H](CO)C(=O)N[C@@H](CCCCN)C(=O)N[C@H](C(=O)O)C(C)C` [GVVDILKGAAKDLAGHLASKV], the MIC [1] was 60.6 µM (≈ 125 µg/mL).
With `CC[C@H](C)[C@H](NC(=O)[C@H](Cc1ccc(O)cc1)NC(=O)[C@H](CCC(N)=O)NC(=O)[C@H](CC(C)C)NC(=O)[C@H](C)NC(=O)[C@H](CCCCN)NC(=O)[C@H](CCCCN)NC(=O)[C@H](CCSC)NC(=O)[C@H](CCCCN)NC(=O)[C@@H](N)CCCCN)C(=O)N[C@@H](CCCCN)C(=O)N[C@@H](CC(C)C)C(=O)N[C@@H](CC(C)C)C(=O)N[C@@H](CCCCN)C(=O)N[C@@H](CCC(=O)O)C(N)=O` [KKMKKALQYIKLLKE] the MIC [1] was > 100 µM and the MIC [3] was > 100 µM.
For `CC(C)C[C@H](NC(=O)[C@H](CO)NC(=O)[C@@H](N)CCCCN)C(=O)N[C@@H](CCCN=C(N)N)C(=O)N[C@@H](CCCN=C(N)N)C(=O)N[C@H](C(=O)N[C@@H](Cc1c[nH]c2ccccc12)C(=O)N[C@@H](CCCN=C(N)N)C(=O)N[C@@H](CO)C(=O)N[C@@H](Cc1c[nH]c2ccccc12)C(=O)N[C@@H](CCCN=C(N)N)C(N)=O)C(C)C` [KSLRRVWRSWR], the MIC [1] was 30 µM (≈ 45.9 µg/mL), the MIC [3] was 40 µM (≈ 61.2 µg/mL) and the MIC [2] was 60 µM (≈ 91.7 µg/mL).
`CC[C@H](C)[C@H](NC(=O)CNC(=O)[C@H](CO)NC(=O)[C@H](CCCN=C(N)N)NC(=O)[C@@H](NC(=O)CNC(=O)[C@H](Cc1c[nH]c2ccccc12)NC(=O)[C@H](CC(C)C)NC(=O)[C@H](CC(=O)O)NC(=O)[C@@H](NC(=O)[C@H](CCCCN)NC(=O)[C@H](CC(C)C)NC(=O)[C@@H](N)CCC(N)=O)C(C)C)[C@@H](C)O)C(N)=O` [QLKVDLWGTRSGI] was tested, and the MIC [1] was > 100 µM, the MIC [3] was > 100 µM and the MIC [2] was > 100 µM.
`CSCC[C@H](NC(=O)[C@H](CCCCN)NC(=O)[C@H](CCCCN)NC(=O)[C@H](CCCCN)NC(=O)[C@H](CCCN=C(N)N)NC(=O)[C@H](CCCN=C(N)N)NC(=O)[C@H](Cc1ccc(O)cc1)NC(=O)[C@@H](N)CCCN=C(N)N)C(=O)N[C@@H](CCCCN)C(=O)N[C@@H](CCCCN)C(=O)N[C@@H](C)C(N)=O` [RYRRKKKMKKA] was tested, and the MIC [1] was > 100 µM and the MIC [3] was > 100 µM.
With `NCCCC[C@H](NC(=O)[C@H](CCCCN)NC(=O)[C@H](CCCCN)NC(=O)[C@H](CCCN=C(N)N)NC(=O)[C@H](CCCN=C(N)N)NC(=O)[C@H](Cc1ccc(O)cc1)NC(=O)[C@@H](N)CCCN=C(N)N)C(N)=O` [RYRRKKK] the MIC [1] was > 100 µM and the MIC [3] was > 100 µM.
With `CC(C)C[C@H](NC(=O)[C@H](CCCCN)NC(=O)CNC(=O)[C@@H](N)CO)C(=O)N[C@@H](CS)C(=O)N[C@@H](CS)C(=O)N[C@@H](CCCN=C(N)N)C(=O)N[C@@H](CCCN=C(N)N)C(=O)N[C@@H](CCCCN)C(=O)N[C@@H](CCCCN)C(N)=O` [SGKLCCRRKK] the MIC [3] was > 100 µM and the MIC [2] was > 100 µM.
`CC(C)C[C@H](NC(=O)[C@H](Cc1ccccc1)NC(=O)[C@H](C)NC(=O)[C@H](Cc1c[nH]c2ccccc12)NC(=O)[C@H](Cc1c[nH]c2ccccc12)NC(=O)[C@H](Cc1c[nH]c2ccccc12)NC(=O)[C@H](C)NC(=O)[C@H](Cc1ccccc1)NC(=O)[C@H](CCCCN)NC(=O)[C@H](CCCCN)NC(=O)[C@@H](N)C(C)C)C(=O)N[C@@H](CCCCN)C(=O)N[C@@H](CCCCN)C(N)=O` [VKKFAWWWAFLKK] was tested, and the MIC [1] was 2 µM (≈ 3.47 µg/mL).
Work on `CC(C)C[C@H](NC(=O)[C@H](Cc1ccccc1)NC(=O)[C@@H]1CCCN1C(=O)[C@H](Cc1ccc(O)cc1)NC(=O)[C@H](Cc1ccc(O)cc1)NC(=O)[C@H](Cc1ccc(O)cc1)NC(=O)[C@@H]1CCCN1C(=O)[C@H](Cc1ccccc1)NC(=O)[C@H](CCCN=C(N)N)NC(=O)[C@H](CCCN=C(N)N)NC(=O)[C@@H](N)C(C)C)C(=O)N[C@@H](CCCN=C(N)N)C(=O)N[C@@H](CCCN=C(N)N)C(N)=O` [VRRFPYYYPFLRR] yielded an MIC [1] of 22.6 µM (≈ 41.5 µg/mL), an MIC (Escherichia coli) of 27.3 µM (≈ 50 µg/mL) and an MIC (Staphylococcus aureus) of 12.2 µM (≈ 22.3 µg/mL).
With `CC[C@H](C)[C@H](NC(=O)CNC(=O)[C@H](CC(C)C)NC(=O)[C@@H](NC(=O)[C@@H](N)Cc1ccc(O)cc1)[C@@H](C)O)C(=O)N[C@@H](CCCCN)C(=O)N[C@H](C(=O)N[C@@H](CC(C)C)C(=O)N[C@@H](Cc1c[nH]c2ccccc12)C(=O)N[C@@H](CO)C(=O)N[C@@H](C)C(=O)N[C@@H](Cc1ccc(O)cc1)C(=O)N[C@@H](CCCCN)C(=O)N[C@@H](Cc1cnc[nH]1)C(=O)O)[C@@H](C)CC` [YTLGIKILWSAYKH] the MIC [4] was 50 µM (≈ 84.7 µg/mL).
